We go through 11 compounds from patent US9199983B2, “3-aryl-6-aryl-[1,2,4]triazolo[4,3-α]pyridines as inhibitors of cell proliferation and the use thereof” (priority 2010, dated 2015).

The test system of test [1] is breast cancer cell line T47D. Briefly: MTT cancer cell cytotoxicity assay, T47D. The class given is cell-based, human. The conditions noted are these: Homo sapiens, T47D cells, 48-72 h. Here is the method: (§1) Identification of 3-(2-methoxyphenyl)-6-(4-methoxyphenyl)-[1,2,4]triazolo[4,3-a]pyridine and analogs as inhibitors of cell proliferation that were evaluated with standard MTT cancer cell cytotoxicity assay (IC50)
(§2) Human lung cancer cell line A549, breast cancer cell line T47D, liver cancer cell lines HepG2 and SMMC7721 as well as a mouse melanoma cell line B16F10 were used in the study. The cells were cultured in corresponding growth media recommended by American Type Culture Collection (ATCC) with the supplementation of penicillin G (100 U/ml)/streptomycin (100 µg/ml), and 10% fetal bovine serum (Hangzhou Sijiqing Biological Engineering Materials, Co., Ltd. China) at 37° C. in a humidified atmosphere containing 5% CO2. Cells at about 80% confluency were harvested by trypsinization. Cells were centrifuged, re-suspended in fresh growth media and counted. Corresponding numbers of cells were seeded to 96-well cell culture plates (HepG2 cell, T-47D and A549 cells at 3000 cells/well, SMMC-7721 cells at 5000 cells/well and B16F10 cells at 2000 cells/well) in a total volume of […]. Cells were incubated in CO2 incubator over night to allow the cells to attach. In next day, […] of medium containing testing (from 10 μM to 1 nM) or reference compounds was added to each well of the cells. Media without compound were used as 100% control. Cells were treated with each concentration of compounds in triplicates to ensure data accuracy. Cells were incubated with compounds in CO2 incubator for an additional 48-72 h at 37° C. After incubation, cells were removed from the CO2 incubator and […] of 5 mg/ml MTT (3-(4,5-dimethylthiazole-2-yl)-2,5-diphenyltetrazoliumbromide, Sigma) solution in PBS was added to each well. Cells were returned to CO2 incubator and incubated for additional 4 h. After the incubation, media were removed by aspiration and […] DMSO was added to each well. Plates were sealed with aluminum foil and shaked mildly on an orbital shaker for 10 min at room temperature. The absorption was measured at 550 nm with a plate reader (Varioskan Flash, Thermo Fisher Scientific) with 660 nm reading used as background control. The relative absorbance readings were calculated by subtracting readings at 660 nm from that at 550 nm. The relative absorbance was plotted again the concentrations of the testing compounds and the plots were fitted with a one-site lg(IC50) equation using Prism 5 software (GraphPad Software, Inc). The equation used in the curve fitting is as follows: relative absorbance reading=background reading+(maximal reading−brackground reading)/(1+10 ^(compound concentration-log IC50)). The background reading used in the calculation was obtained with 100% cell death using a reference anticancer drug, whereas the maximal reading was obtained in the well with no added compound. The IC50 value calculated from the equation represents the cytotoxic potency of a particular compound.

Test [2] has as its system Human lung cancer cell line A549. The test is described as follows: MTT cancer cell cytotoxicity assay, A549. Particulars: Homo sapiens, A549 cells, 48-72 h. The class given is cell-based. The procedure: as §1, §2
Test [3] relates to liver cancer cell line SMMC7721. Briefly: MTT cancer cell cytotoxicity assay, SMMC7721. The class given is cell-based, human. The conditions noted are these: Homo sapiens, SMMC-7721, SMMC7721 cells, 48-72 h. Here is the method:
as §1, §2

The subject of test [4] is liver cancer cell line HepG2. Briefly: MTT cancer cell cytotoxicity assay, HepG2. The class given is cell-based, human. Particulars: Homo sapiens, HepG2 cells, 48-72 h. Here is the method: as §1, §2

The structures appear in SMILES notation.

The IC50 is the point on the concentration scale where inhibition reaches its midpoint. Read a high IC50 as weaker potency in that assay. Take `COc1ccc(-c2ccc3nnc(-c4cc(S(N)(=O)=O)ccc4OC)n3c2)cc1` [Example 75, 6-(4-Methoxyphenyl)-3-(2-methoxy-5-sulfamoylphenyl)-[1,2,4]triazolo[4,3-a]pyridine]: the IC50 in test [1], in test [2], in test [3] and in test [4] was greater than 10000 nM each time.
Consider `COc1ccccc1-c1nnc2ccc(-c3cccc(O)c3)cn12` [Example 12, 6-(3-Hydroxyphenyl)-3-(2-methoxyphenyl)-[1,2,4]triazolo[4,3-a]pyridine], for which the half-inhibitory concentration (IC50) in test [1] is greater than 10000 nM; in test [2], 7180 nM; in test [3], greater than 10000 nM; in test [4] it was 2950 nM.
In the case of `COc1ccccc1-c1nnc2ccc(-c3ccc(C)cc3C)cn12` [Example 25, 6-(2,4-Dimethylphenyl)-3-(2-methoxyphenyl)-[1,2,4]triazolo[4,3-a]pyridine], the IC50 in test [1] was 415 nM; in test [2], 725 nM; in test [3], 114 nM; in test [4], 724 nM.
As for `COc1ccccc1-c1nnc2ccc(-c3ccc(C)c(F)c3)cn12` [Example 33, 6-(3-Fluoro-4-methylphenyl)-3-(2-methoxyphenyl)-[1,2,4]triazolo[4,3-a]pyridine], the IC50 in test [1] was found to be 804 nM; in test [2], 630 nM; in test [3], 164 nM; in test [4], 772 nM.
Taken in the same sequence, the figures for `COc1ccc(-c2ccc3nnc(-c4cccnc4Cl)n3c2)cc1` [Example 85, 3-(2-Chloropyridin-3-yl)-6-(4-methoxyphenyl)-[1,2,4]triazolo[4,3-a]pyridine] were 4340 nM, greater than 10000 nM, 1890 nM and 3870 nM.
Take `COc1ccc(-c2cc(C)c3nnc(-c4ccccc4OC)n3c2)cc1` [Example 55, 3-(2-Methoxyphenyl)-6-(4-methoxyphenyl)-8-methyl-[1,2,4]triazolo[4,3-a]pyridine]: the IC50 is 260 nM in test [1], 122 nM in test [2], 58 nM in test [3] and 88 nM in test [4].
As for `COc1cc(-c2ccc3nnc(-c4ccccc4OC)n3c2)ccc1C` [Example 28, 6-(3-Methoxy-4-methylphenyl)-3-(2-methoxyphenyl)-[1,2,4]triazolo[4,3-a]pyridine], the IC50 was found to be 495 nM in test [1], 886 nM in test [2], 178 nM in test [3] and 448 nM in test [4].
Turning to `COc1ccc(-c2ccc3nnc(-c4ccc(F)cc4OC)n3c2)cc1` [Example 58, 3-(4-Fluoro-2-methoxyphenyl)-6-(4-methoxyphenyl)-[1,2,4]triazolo[4,3-a]pyridine], the IC50 in test [1] worked out at 54 nM; in test [2], 59 nM; in test [3], 17 nM; in test [4], 35 nM.
Consider `COc1ccc(-c2ccc3nnc(-c4cc(C)ccc4OC)n3c2)cc1` [Example 76, 3-(2-Methoxy-5-methylphenyl)-6-(4-methoxyphenyl)-[1,2,4]triazolo[4,3-a]pyridine], for which the IC50 in test [1] was 633 nM; in test [2], 533 nM; in test [3], 104 nM; in test [4] it was 283 nM.
Consider `COc1ccc(-c2ccc3nnc(-c4ccccc4)n3c2)cc1` [Example 68, 6-(4-Methoxyphenyl)-3-phenyl-[1,2,4]triazolo[4,3-a]pyridine], for which the IC50 was 2940 nM in test [1], 7750 nM in test [2], 755 nM in test [3] and 5030 nM in test [4].
Consider `COc1ccccc1-c1nnc2ccc(-c3cc(OC)c(OC)c(OC)c3)cn12` [Example 29, 3-(2-Methoxyphenyl)-6-(3,4,5-trimethoxyphenyl)-[1,2,4]triazolo[4,3-a]pyridine], for which the concentration for half-maximal inhibition (IC50) in test [1], in test [2], in test [3] and in test [4] was greater than 10000 nM in each case.
